target: T1, human NOX4 (Homo sapiens, UniProt Q9NPH5); assay: Amplex Red activity assay (cellular H2O2 formation in hNOX4 T-REx-293 cells); format: cell-based; settings: tet-induced 24 h, extracellular H2O2 by Amplex Red, 60 min 25° C., geometric mean if determined several times
T1 construct: The full-length human NOX4 (NM_016931.3) transcript was cloned; expressed in transfected cells
T1 sequence (Q9NPH5 1-578): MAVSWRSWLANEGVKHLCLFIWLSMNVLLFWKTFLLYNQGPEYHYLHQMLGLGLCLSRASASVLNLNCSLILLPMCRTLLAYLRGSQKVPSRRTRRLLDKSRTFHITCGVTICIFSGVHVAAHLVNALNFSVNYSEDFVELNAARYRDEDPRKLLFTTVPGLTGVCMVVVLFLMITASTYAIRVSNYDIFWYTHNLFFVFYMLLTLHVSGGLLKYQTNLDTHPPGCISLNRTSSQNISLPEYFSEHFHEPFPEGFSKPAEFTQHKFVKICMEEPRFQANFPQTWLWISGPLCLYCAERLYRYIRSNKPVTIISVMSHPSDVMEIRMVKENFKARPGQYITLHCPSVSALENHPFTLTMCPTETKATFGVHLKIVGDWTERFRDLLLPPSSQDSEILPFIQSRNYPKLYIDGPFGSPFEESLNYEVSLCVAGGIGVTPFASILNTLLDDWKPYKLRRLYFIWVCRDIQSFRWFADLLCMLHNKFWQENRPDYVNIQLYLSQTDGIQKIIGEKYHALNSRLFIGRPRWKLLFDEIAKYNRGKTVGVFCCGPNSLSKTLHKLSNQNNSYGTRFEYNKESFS
T1 sequence (P13498 1-195 partner): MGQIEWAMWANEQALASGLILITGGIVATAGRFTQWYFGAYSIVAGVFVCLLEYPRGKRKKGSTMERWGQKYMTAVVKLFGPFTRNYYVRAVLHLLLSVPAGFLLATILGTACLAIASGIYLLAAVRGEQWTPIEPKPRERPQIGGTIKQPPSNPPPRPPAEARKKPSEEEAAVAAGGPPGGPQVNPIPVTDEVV
Experimental: The nucleotide sequence and the amino acid sequence for the human NOX4 (Entrez Gene ID 50507) is known in the art and are published. The potency and efficacy of the compounds of Formula (I) are assessed for their potential to inhibit the formation of ROS in a cellular assay.
The full-length human NOX4 (NM_016931.3) transcript was cloned into the pDONR™221 vector (Life Technologies™) in order to generate, by site-specific integration according to the recommendation of the manufacturer (Life Technologies™), a recombinant pJTI™ R4 DEST CMV-TO vector containing the NOX4 coding information controlled by tetracycline (tet) responsive tet-on cytomegalovirus promoter (hNOX4 pDEST).
Modified human embryonic kidney cells overexpressing a tet receptor (Jump-In™ T-REx™ HEK293; Life Technologies™) were transfected with the NOX4-containing tet-on vector (hNOX4 pDEST) to generate a stable recombinant cell pool (hNOX4 T-REx-293). hNOX4 T-REx-293 cells were cultured in DMEM containing 4.5 g/L glucose supplemented with 10% fetal calf serum, penicillin (100 U/mL), streptomycin (100 μg/mL), geneticin (1 mg/mL), and blasticidin (5 μg/mL) at 37° C. in air with 5% CO2. Human Nox4 expression was induced with tet (1 μg/mL) for 24 h and extracellular H2O2 was quantified using the Amplex Red reagent (Life Technologies™).
Compounds were prepared as 10 mM stock solution in DMSO vehicle, then diluted in 384-well plates using DMSO followed by a transfer of the dilutions into the assay plate. As a control, diphenylene iodonium was included at a final concentration of 10 μM. Compounds were tested at 10 concentrations in the range from 50 μM highest to 100 nM lowest.
Cellular H2O2 formation was measured using the Amplex Red reagent. […] Cells were seeded into 384-well clear bottom plates at a density of 20 000 cells per well in presence or absence of compounds. […] All wells contained 1.25% of DMSO. The plates were kept at 25° C. for 60 min. The amount of produced resorufin was detected with the Synergy™ Mx microplate reader (BioTek) with excitation and emission wavelengths set to 550 nm and 600 nm, respectively. Fluorescence was measured for each well and the fluorescence at 600 nm wavelength was compared to the fluorescence of the vehicle in place of compound. Inhibitory activities of example compounds were determined by calculating the IC50 value (the concentration of compound needed to inhibit 50% of the enzyme activity). The calculated IC50 values may fluctuate depending on the daily cellular assay performance. Fluctuations of this kind are known to those skilled in the art.

| IC50 | Structure (SMILES) |
| --- | --- |
| 702 nM | O=C(Nc1ccc2oc(N3CCC3c3ccccc3)nc2c1)c1ccc2c(c1)CCO2 (racemic) [Example 62, rac-2,3-Dihydro-benzofuran-5-carboxylic acid [2-(2-phenyl-azetidin-1-yl)-benzooxazol-5-yl]-amide] |
| 1090 nM | O=C(Nc1ccc2sc(N3CCC3c3ccccc3)nc2c1)c1ccc2c(c1)CCO2 (racemic) [Example 111, rac-2,3-Dihydro-benzofuran-5-carboxylic acid [2-(2-phenyl-azetidin-1-yl)-benzothiazol-5-yl]-amide] |
| 639 nM | O=C(Nc1ccc2oc(N3CCCCC3)nc2c1)c1ccc2c(c1)CCO2 [Example 2, 2,3-Dihydro-benzofuran-5-carboxylic acid (2-piperidin-1-yl-benzooxazol-5-yl)-amide] |
| 899 nM | O=C(Nc1ccc2oc(N3CCCC3)nc2c1)c1ccc2c(c1)CCO2 [Example 3, 2,3-Dihydro-benzofuran-5-carboxylic acid (2-pyrrolidin-1-yl-benzooxazol-5-yl)-amide] |
| 967 nM | CN1CCN(c2nc3cc(NC(=O)c4ccc5c(c4)CCO5)ccc3o2)CC1 [Example 4, 2,3-Dihydro-benzofuran-5-carboxylic acid [2-(4-methyl-piperazin-1-yl)-benzooxazol-5-yl]-amide] |
| 627 nM | O=C(Nc1ccc2oc(N3CCOCC3)nc2c1)c1ccc2c(c1)CCO2 [Example 5, 2,3-Dihydro-benzofuran-5-carboxylic acid (2-morpholin-4-yl-benzooxazol-5-yl)-amide] |
| 559 nM | CCN(CC)c1nc2cc(NC(=O)c3ccc4c(c3)CCO4)ccc2o1 [Example 6, 2,3-Dihydro-benzofuran-5-carboxylic acid (2-diethylamino-benzooxazol-5-yl)-amide] |
| 358 nM | O=C(Nc1ccc2oc(N3CCC(F)(F)CC3)nc2c1)c1ccc2c(c1)CCO2 [Example 7, 2,3-Dihydro-benzofuran-5-carboxylic acid [2-(4,4-difluoro-piperidin-1-yl)-benzooxazol-5-yl]-amide] |
| 1890 nM | O=C(Nc1ccc2oc(N3CC(F)(F)C3)nc2c1)c1ccc2c(c1)CCO2 [Example 8, 2,3-Dihydro-benzofuran-5-carboxylic acid [2-(3,3-difluoro-azetidin-1-yl)-benzooxazol-5-yl]-amide] |
| 573 nM | O=C(Nc1ccc2oc(N3CCC(F)(F)C3)nc2c1)c1ccc2c(c1)CCO2 [Example 9, 2,3-Dihydro-benzofuran-5-carboxylic acid [2-(3,3-difluoro-pyrrolidin-1-yl)-benzooxazol-5-yl]-amide] |
| 711 nM | COC1CCN(c2nc3cc(NC(=O)c4ccc5c(c4)CCO5)ccc3o2)C1 (centres unmarked) [Example 10, 2,3-Dihydro-benzofuran-5-carboxylic acid [2-(3-methoxy-pyrrolidin-1-yl)-benzooxazol-5-yl]-amide] |
| 358 nM | COC1CCN(c2nc3cc(NC(=O)c4ccc5c(c4)CCO5)ccc3o2)CC1 [Example 11, 2,3-Dihydro-benzofuran-5-carboxylic acid [2-(4-methoxy-piperidin-1-yl)-benzooxazol-5-yl]-amide] |
| 688 nM | CC1(O)CN(c2nc3cc(NC(=O)c4ccc5c(c4)CCO5)ccc3o2)C1 [Example 12, 2,3-Dihydro-benzofuran-5-carboxylic acid [2-(3-hydroxy-3-methyl-azetidin-1-yl)-benzooxazol-5-yl]-amide] |
| 5360 nM | CN(C)CCN(C)c1nc2cc(NC(=O)c3ccc4c(c3)CCO4)ccc2o1 [Example 13, 2,3-Dihydro-benzofuran-5-carboxylic acid {2-[(2-dimethylamino-ethyl)-methyl-amino]-benzooxazol-5-yl}-amide; compound with formic acid] |
| 1700 nM | CN(C)C1CCN(c2nc3cc(NC(=O)c4ccc5c(c4)CCO5)ccc3o2)CC1 [Example 14, 2,3-Dihydro-benzofuran-5-carboxylic acid [2-(4-dimethylamino-piperidin-1-yl)-benzooxazol-5-yl]-amide; compound with formic acid] |
| 405 nM | O=C(Nc1ccc2oc(N3CCC34COC4)nc2c1)c1ccc2c(c1)CCO2 [Example 15, 2,3-Dihydro-benzofuran-5-carboxylic acid [2-(6-oxa-1-aza-spiro[3.3]hept-1-yl)-benzooxazol-5-yl]-amide] |
| 389 nM | O=C(Nc1ccc2oc(N3CCCC(F)(F)C3)nc2c1)c1ccc2c(c1)CCO2 [Example 16, 2,3-Dihydro-benzofuran-5-carboxylic acid [2-(3,3-difluoro-pipeiidin-1-yl)-benzooxazol-5-yl]-amide] |
| 2300 nM | O=C(Nc1ccc2oc(N3CC(N4CCOCC4)C3)nc2c1)c1ccc2c(c1)CCO2 [Example 17, 2,3-Dihydro-benzofuran-5-carboxylic acid [2-(3-morpholin-4-yl-azetidin-1-yl)-benzooxazol-5-yl]-amide] |
| 568 nM | CN(c1nc2cc(NC(=O)c3ccc4c(c3)CCO4)ccc2o1)C1(C)COC1 [Example 18, 2,3-Dihydro-benzofuran-5-carboxylic acid {2-[methyl-(3-methyl-oxetan-3-yl)-amino]-benzooxazol-5-yl}-amide] |
| 2890 nM | O=C(Nc1ccc2oc(N3CC(N4CCS(=O)(=O)CC4)C3)nc2c1)c1ccc2c(c1)CCO2 [Example 19, 2,3-Dihydro-benzofuran-5-carboxylic acid {2-[3-(1,1-dioxo-1l6-thiomoipholin-4-yl)-azetidin-1-yl]-benzooxazol-5-yl}-amide] |
| 1400 nM | CC1(O)CN(C2CN(c3nc4cc(NC(=O)c5ccc6c(c5)CCO6)ccc4o3)C2)C1 [Example 20, 2,3-Dihydro-benzofuran-5-carboxylic acid [2-(3-hydroxy-3-methyl-[1,3′]biazetidinyl-1′-yl)-benzooxazol-5-yl]-amide] |
| 1610 nM | O=C(Nc1ccc2oc(N3CC4(CCO4)C3)nc2c1)c1ccc2c(c1)CCO2 [Example 21, 2,3-Dihydro-benzofuran-5-carboxylic acid [2-(1-oxa-6-aza-spiro[3.3]hept-6-yl)-benzooxazol-5-yl]-amide] |
| 505 nM | O=C(Nc1ccc2oc(N3CCC4(COC4)C3)nc2c1)c1ccc2c(c1)CCO2 [Example 22, 2,3-Dihydro-benzofuran-5-carboxylic acid [2-(2-oxa-6-aza-spiro[3.4]oct-6-yl)-benzooxazol-5-yl]-amide] |
| 1470 nM | O=C(Nc1ccc2oc(N3CC4(CCCOC4)C3)nc2c1)c1ccc2c(c1)CCO2 [Example 23, 2,3-Dihydro-benzofuran-5-carboxylic acid [2-(6-oxa-2-aza-spiro[3.5]non-2-yl)-benzooxazol-5-yl]-amide] |
| 352 nM | O=C(Nc1ccc2oc(N3CCCC34COC4)nc2c1)c1ccc2c(c1)CCO2 [Example 24, 2,3-Dihydro-benzofuran-5-carboxylic acid [2-(2-oxa-5-aza-spiro[3.4]oct-5-yl)-benzooxazol-5-yl]-amide] |
| 804 nM | O=C(Nc1ccc2oc(N3CCCC4(CCO4)C3)nc2c1)c1ccc2c(c1)CCO2 (centres unmarked) [Example 25, 2,3-Dihydro-benzofuran-5-carboxylic acid [2-(1-oxa-6-aza-spiro[3.5]non-6-yl)-benzooxazol-5-yl]-amide] |

— patent US11136317B2, “NADPH oxidase 4 inhibitors” (ACTELION PHARMACEUTICALS LTD, priority 2015, dated 2021)
